The source of these data is US9938261B2, “Heterocyclic compounds and methods of use thereof” (AMBIT BIOSCIENCES CORPORATION, priority 2011, dated 2018).

One assay addresses T1, FLT3 (Homo sapiens, UniProt P36888).
T1 construct: made in house
T1 sequence (P36888 27-993): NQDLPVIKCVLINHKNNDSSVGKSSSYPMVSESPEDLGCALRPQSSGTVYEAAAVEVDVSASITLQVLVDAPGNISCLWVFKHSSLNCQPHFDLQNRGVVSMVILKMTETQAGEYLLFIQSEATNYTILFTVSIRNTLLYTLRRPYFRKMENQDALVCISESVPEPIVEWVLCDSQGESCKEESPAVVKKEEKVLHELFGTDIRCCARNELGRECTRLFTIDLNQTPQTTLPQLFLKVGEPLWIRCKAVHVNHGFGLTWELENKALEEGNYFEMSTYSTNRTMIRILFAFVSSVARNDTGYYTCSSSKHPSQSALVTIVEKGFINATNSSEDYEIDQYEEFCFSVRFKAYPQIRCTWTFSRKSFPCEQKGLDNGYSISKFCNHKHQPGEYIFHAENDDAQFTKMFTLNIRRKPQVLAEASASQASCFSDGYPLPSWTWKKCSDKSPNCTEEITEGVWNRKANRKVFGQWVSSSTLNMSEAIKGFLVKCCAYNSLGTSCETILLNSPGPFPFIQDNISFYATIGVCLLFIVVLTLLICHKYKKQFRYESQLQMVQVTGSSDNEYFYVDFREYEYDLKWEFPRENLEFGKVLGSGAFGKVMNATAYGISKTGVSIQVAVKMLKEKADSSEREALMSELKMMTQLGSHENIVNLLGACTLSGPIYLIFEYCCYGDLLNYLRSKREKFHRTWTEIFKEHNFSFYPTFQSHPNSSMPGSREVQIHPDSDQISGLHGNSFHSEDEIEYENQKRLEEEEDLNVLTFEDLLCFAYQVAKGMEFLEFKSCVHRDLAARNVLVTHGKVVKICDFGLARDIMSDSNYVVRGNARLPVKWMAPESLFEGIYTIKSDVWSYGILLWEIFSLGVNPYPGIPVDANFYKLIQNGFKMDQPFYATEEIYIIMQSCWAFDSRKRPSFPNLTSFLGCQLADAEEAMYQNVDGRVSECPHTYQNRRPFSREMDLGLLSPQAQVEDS
Briefly: Competition binding assay, FLT3 Kd. Particulars: competition binding. The essentials: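 Kinases, either T7 phage fusions or HEK-293-expressed and DNA-tagged, competed with test compounds for immobilized biotinylated affinity ligand on streptavidin beads in binding buffer (20% SeaBlock, 0.17×PBS, 0.05% Tween 20, 6 mM DTT). After 1 hour at room temperature, bead-bound kinase was eluted and quantified by qPCR; Kd from eleven-point threefold dilutions.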

The target of the next assay is CSF1R (Homo sapiens, UniProt P07333). Description: HEK293 CSF1R phosphorylation MSD assay. Set-up: expressed in transfected cells; host or cells: HEK293. The note with it: HEK293 cells, M-CSF stimulated CSF1R phosphorylation, MSD; read-out: HEK293 pCSF1R M-CSF MSD:IC50. The assay is classed as cell-based. The essentials:
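HEK293 cells expressing CSF1R-FKBP were pretreated 2 h at 37° C with 9 half-log concentrations of compound (0.5% DMSO final), then stimulated 5 min with 50 ng/mL human M-CSF. Lysates captured on biotin-FK506 plates; phosphotyrosine detected by MSD electrochemiluminescence. IC50 versus DMSO, averaged from duplicate plates.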

Sequence of CSF1R (P07333 20-972): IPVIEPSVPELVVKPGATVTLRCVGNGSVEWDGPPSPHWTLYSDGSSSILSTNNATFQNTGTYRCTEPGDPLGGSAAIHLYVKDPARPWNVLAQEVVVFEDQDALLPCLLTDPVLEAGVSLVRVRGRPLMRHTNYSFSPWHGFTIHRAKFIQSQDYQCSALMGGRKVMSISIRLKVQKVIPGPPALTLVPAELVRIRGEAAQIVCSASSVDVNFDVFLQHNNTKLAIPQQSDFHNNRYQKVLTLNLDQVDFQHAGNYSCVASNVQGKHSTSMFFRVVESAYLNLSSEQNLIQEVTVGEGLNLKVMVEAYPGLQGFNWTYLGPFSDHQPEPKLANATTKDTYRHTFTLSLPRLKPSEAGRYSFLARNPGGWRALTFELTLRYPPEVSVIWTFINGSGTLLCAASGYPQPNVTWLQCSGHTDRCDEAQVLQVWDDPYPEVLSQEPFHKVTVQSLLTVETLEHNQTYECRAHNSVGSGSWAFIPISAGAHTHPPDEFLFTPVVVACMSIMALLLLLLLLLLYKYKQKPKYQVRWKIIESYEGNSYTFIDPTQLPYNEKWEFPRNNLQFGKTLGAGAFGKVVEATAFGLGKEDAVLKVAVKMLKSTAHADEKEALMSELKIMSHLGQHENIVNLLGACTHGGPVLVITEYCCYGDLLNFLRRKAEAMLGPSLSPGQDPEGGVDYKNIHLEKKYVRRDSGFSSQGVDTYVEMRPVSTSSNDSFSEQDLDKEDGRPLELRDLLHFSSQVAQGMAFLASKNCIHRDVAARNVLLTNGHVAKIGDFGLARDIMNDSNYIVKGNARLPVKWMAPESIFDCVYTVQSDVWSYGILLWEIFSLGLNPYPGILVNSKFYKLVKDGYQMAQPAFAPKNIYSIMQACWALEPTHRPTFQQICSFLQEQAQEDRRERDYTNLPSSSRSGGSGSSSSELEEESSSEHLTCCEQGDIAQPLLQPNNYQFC

A word on the Kd: it is the concentration at which binding is half-saturated. A lower Kd goes with higher affinity. Broadly, the IC50 is the midpoint of a concentration-inhibition curve. As to `O[C@@H]1CCCC[C@H]1Nc1nc2ccc(Cc3cnc4ccc(Cl)nn34)cc2s1` [Example 158, (1R,2R)-2-((6-((6-chloroimidazo[1,2-b]pyridazin-3-yl)methyl)benzo[d]thiazol-2-yl)amino)cyclohexanol], the dissociation constant Kd at FLT3 was in the range of 200 to 1000 nM. In addition, the IC50 at CSF1R was no more than 50 nM.
The matching figures for `O[C@@H]1CCCC[C@H]1Nc1nc2ccc(Cc3cnc4ccc(-n5cccn5)cn34)cc2s1` [Example 159, (1R,2R)-2-((6-((6-(1H-pyrazol-1-yl)imidazo[1,2-a]pyridin-3-yl)methyl)benzo[d]thiazol-2-yl)amino)cyclohexanol]: 1000 to 5000 nM and 200 to 500 nM.
In the same order, the values of `O[C@@H]1CCCC[C@H]1Nc1nc2ccc(Cn3cnc4cc(-n5cccn5)ccc43)cc2s1` [Example 160, (1R,2R)-2-((6-((5-(1H-pyrazol-1-yl)-1H-benzo[d]imidazol-1-yl)methyl)benzo[d]thiazol-2-yl)amino)cyclohexanol] are 200 to 1000 nM and no more than 50 nM.
`O[C@@H]1CCCC[C@H]1Nc1nc2ccc(Cn3cnc4cc(-n5cncn5)ccc43)cc2s1` [Example 161, (1R,2R)-2-((6-((5-(1H-1,2,4-triazol-1-yl)-1H-benzo[d]imidazol-1-yl)methyl)benzo[d]thiazol-2-yl)amino)cyclohexanol] had a Kd at FLT3 of 1000 to 5000 nM. Further, the IC50 on CSF1R is no more than 50 nM.
In the same order, the values of `O[C@H]1CCCC[C@H]1Nc1nc2ccc(Cn3cnc4cc(F)cnc43)cc2s1` [Example 162, (1S,2R)-2-((6-((6-fluoro-3H-imidazo[4,5-b]pyridin-3-yl)methyl)benzo[d]thiazol-2-yl)amino)cyclohexanol] are 1000 to 5000 nM and 50 to 200 nM.
In the same order, the values of `O[C@H]1CC[C@H](Nc2nc3ccc(Cn4cnc5cc(F)cnc54)cc3s2)CC1` [Example 163, trans-4-((6-((6-fluoro-3H-imidazo[4,5-b]pyridin-3-yl)methyl)benzo[d]thiazol-2-yl)amino)cyclohexanol] are greater than 5000 nM and greater than 500 nM.
In the same order, the values of `O[C@@H]1CCCC[C@H]1Nc1nc2ccc(Cn3cnc4cccnc43)c(F)c2s1` [Example 164, (1R,2R)-2-((6-((3H-imidazo[4,5-b]pyridin-3-yl)methyl)-7-fluorobenzo[d]thiazol-2-yl)amino)cyclohexanol] are 1000 to 5000 nM and greater than 500 nM.
On to `COc1ccc2ncc(Cc3ccc4nc(N[C@@H]5CCCC[C@H]5O)sc4c3)n2c1` [Example 165, (1R,2R)-2-((6-((6-methoxyimidazo[1,2-a]pyridin-3-yl)methyl)benzo[d]thiazol-2-yl)amino)cyclohexanol], for which the Kd at FLT3 is greater than 5000 nM. Further, the IC50 on CSF1R was greater than 500 nM.
In the same order, the values of `O[C@@H]1CCCC[C@H]1Nc1nc2c(Br)cc(Cn3cnc4cccnc43)cc2s1` [Example 166, (1R,2R)-2-((6-((3H-imidazo[4,5-b]pyridin-3-yl)methyl)-4-bromobenzo[d]thiazol-2-yl)amino)cyclohexanol] are 200 to 1000 nM and greater than 500 nM.
In the same order, the values of `O[C@@H]1CCCC[C@H]1Nc1nc2ccc(Cc3cnc4cc(-n5cccn5)ccn34)cc2s1` [Example 167, (1R,2R)-2-((6-((7-(1H-pyrazol-1-yl)imidazo[1,2-a]pyridin-3-yl)methyl)benzo[d]thiazol-2-yl)amino)cyclohexanol] are 1000 to 5000 nM and no more than 50 nM.
In the same order, the values of `O[C@@H]1CCCC[C@H]1Nc1nc2c(F)cc(Cn3cnc4cccnc43)c(F)c2s1` [Example 168, (1R,2R)-2-((6-((3H-imidazo[4,5-b]pyridin-3-yl)methyl)-4,7-difluorobenzo[d]thiazol-2-yl)amino)cyclohexanol] are 1000 to 5000 nM and greater than 500 nM.
The compound `O[C@@H]1CCCC[C@H]1Nc1nc2ccc(Cc3cnc4cc(-n5cncn5)ccn34)cc2s1` [Example 169, (1R,2R)-2-((6-((7-(1H-1,2,4-triazol-1-yl)imidazo[1,2-a]pyridin-3-yl)methyl)benzo[d]thiazol-2-yl)amino)cyclohexanol] gave a Kd at FLT3 of 1000 to 5000 nM. In addition, the IC50 on CSF1R is 50 to 200 nM.
In the same order, the values of `N#Cc1ccc2c(c1)ncn2Cc1ccc2nc(N[C@@H]3CCCC[C@H]3O)oc2c1` [Example 170, 1-((2-(((1R,2R)-2-hydroxycyclohexyl)amino)benzo[d]oxazol-6-yl)methyl)-1H-benzo[d]imidazole-5-carbonitrile] are greater than 5000 nM and greater than 500 nM.
The matching figures for `O[C@@H]1CCCC[C@H]1Nc1nc2ccc(Cn3cnc4cc(OCCN5CCOCC5)ccc43)cc2s1` [Example 171, (1R,2R)-2-((6-((5-(2-morpholinoethoxy)-1H-benzo[d]imidazol-1-yl)methyl)benzo[d]thiazol-2-yl)amino)cyclohexanol]: 200 to 1000 nM and no more than 50 nM.
Compound `OCCOc1ccc2c(c1)ncn2Cc1ccc2nc(N[C@@H]3CCCC[C@H]3O)sc2c1` [Example 172, (1R,2R)-2-((6-((5-(2-hydroxyethoxy)-1H-benzo[d]imidazol-1-yl)methyl)benzo[d]thiazol-2-yl)amino)cyclohexanol] showed a Kd on FLT3 of 200 to 1000 nM. Further, at CSF1R, the IC50 is no more than 50 nM.
In turn, `CNC(=O)c1ccc2c(c1)ncn2Cc1ccc2nc(N[C@@H]3CCCC[C@H]3O)sc2c1` [Example 173, 1-((2-(((1R,2R)-2-hydroxycyclohexyl)amino)benzo[d]thiazol-6-yl)methyl)-N-methyl-1H-benzo[d]imidazole-5-carboxamide] showed a Kd at FLT3 of 200 to 1000 nM. For the same compound, the IC50 on CSF1R is 50 to 200 nM.
The matching figures for `C=C(c1ccc2c(c1)ncn2Cc1ccc2nc(N[C@@H]3CCCC[C@H]3O)sc2c1)C(F)(F)F` [Example 175, (1R,2R)-2-((6-((5-(3,3,3-trifluoroprop-1-en-2-yl)-1H-benzo[d]imidazol-1-yl)methyl)benzo[d]thiazol-2-yl)amino)cyclohexanol]: 200 to 1000 nM and 50 to 200 nM.
The matching figures for `Fc1cnc2c(c1)ncn2Cc1ccc2nc(N[C@H]3C=CCCC3)sc2c1` [Example 176, (R)—N-(cyclohex-2-en-1-yl)-6-((6-fluoro-3H-imidazo[4,5-b]pyridin-3-yl)methyl)benzo[d]thiazol-2-amine]: 1000 to 5000 nM and 200 to 500 nM.
Regarding `N#Cc1ccc2ncc(Cc3ccc4nc(N[C@@H]5CCCC[C@H]5O)sc4c3)n2n1` [Example 221, 3-((2-(((1R,2R)-2-hydroxycyclohexyl)amino)benzo[d]thiazol-6-yl)methyl)imidazo[1,2-b]pyridazine-6-carbonitrile], the Kd on FLT3 is no more than 200 nM. The IC50 at CSF1R is no more than 50 nM.
In the same order, the values of `O=c1c(N2CCOCC2)nccn1Cc1ccc2nc(N[C@@H]3CCCC[C@H]3O)sc2c1` [Example 222, 1-((2-(((1R,2R)-2-hydroxycyclohexyl)amino)benzo[d]thiazol-6-yl)methyl)-3-morpholinopyrazin-2(1H)-one] are greater than 5000 nM and greater than 500 nM.
In the same order, the values of `O=C(c1ccn2c(Cc3ccc4nc(N[C@@H]5CCCC[C@H]5O)sc4c3)cnc2c1)N1CCCC1` [Example 223, (3-((2-(((1R,2R)-2-hydroxycyclohexyl)amino)benzo[d]thiazol-6-yl)methyl)imidazo[1,2-a]pyridin-7-yl)(pyrrolidin-1-yl)methanone] are 1000 to 5000 nM and 50 to 200 nM.
In the same order, the values of `O=C(O)/C=C/c1ccc2c(c1)ncn2Cc1ccc2nc(N[C@@H]3CCCC[C@H]3O)sc2c1` [Example 224, (E)-3-(1-((2-(((1R,2R)-2-hydroxycyclohexyl)amino)benzo[d]thiazol-6-yl)methyl)-1H-benzo[d]imidazol-5-yl)acrylic acid] are 200 to 1000 nM and greater than 500 nM.
Regarding `O[C@@H]1CCCC[C@H]1Nc1nc2ccc(Cn3cnc4cc(-n5ccnc5)ccc43)cc2s1` [Example 226, (1R,2R)-2-((6-((5-(1H-imidazol-1-yl)-1H-benzo[d]imidazol-1-yl)methyl)benzo[d]thiazol-2-yl)amino)cyclohexanol], the Kd at FLT3 was in the range of 200 to 1000 nM. In addition, at CSF1R, the IC50 is no more than 50 nM.
